Laboratory results as given in ChEMBL document CHEMBL3885881, “DrugMatrix”.

Organism: Rattus norvegicus
Assay: DrugMatrix - Regimen: Daily Repeat
Assay type: toxicity, organism-based, Sprague-Dawley
Design: regimen Daily Repeat, gender Male, age 6-8 weeks
Settings: in vivo, iv, vehicle 100 % SALINE; for ABSOLUTE BASOPHIL / ABSOLUTE EOSINOPHIL / ABSOLUTE LYMPHOCYTE / ABSOLUTE MONOCYTE / ABSOLUTE SEGMENTED NEUTROPHIL / BASOPHIL / EOSINOPHIL / ERYTHROCYTE COUNT / HEMATOCRIT / HEMOGLOBIN / LEUKOCYTE COUNT / LYMPHOCYTE / MEAN CORPUSCULAR HEMOGLOBIN / MEAN CORPUSCULAR HEMOGLOBIN CONCENTRATION / MEAN CORPUSCULAR VOLUME / MONOCYTE / NEUTROPHIL / NUCLEATED RED BLOOD CELLS / PLATELET COUNT: tissue Blood; for ALANINE AMINOTRANSFERASE / ALBUMIN / ALKALINE PHOSPHATASE / ASPARTATE AMINOTRANSFERASE / BLOOD UREA NITROGEN / CARBON DIOXIDE / CHLORIDE / CHOLESTEROL / CREATINE PHOSPHOKINASE / CREATININE / GLUCOSE / LACTATE DEHYDROGENASE / LIPASE / PHOSPHORUS / POTASSIUM / SODIUM / TOTAL BILIRUBIN / TOTAL PROTEIN / URIC ACID: tissue Plasma
[1] = 29 mg/kg, 120 h, dose level Low, time 5 day
[2] = 48 mg/kg, 72 h, dose level High, time 3 day
[3] = 48 mg/kg, 120 h, dose level High, time 5 day

C[n+]1ccccc1/C=N/O.[Cl-] [PRALIDOXIME CHLORIDE]
ABSOLUTE BASOPHIL [1]: 0 CELLS/uL | ABSOLUTE EOSINOPHIL [1]: 0 CELLS/uL | ABSOLUTE LYMPHOCYTE [1]: 11211.67 CELLS/uL | ABSOLUTE MONOCYTE [1]: 254 CELLS/uL | ABSOLUTE SEGMENTED NEUTROPHIL [1]: 1034.33 CELLS/uL | BASOPHIL [1]: 0% | EOSINOPHIL [1]: 0% | ERYTHROCYTE COUNT [1]: 5.41 x10E6/uL | HEMATOCRIT [1]: 34.03% | HEMOGLOBIN [1]: 12.57 G/DL | LEUKOCYTE COUNT [1]: 12.5 x10E3/uL | LYMPHOCYTE [1]: 89.67% | MEAN CORPUSCULAR HEMOGLOBIN [1]: 23.3 pg | MEAN CORPUSCULAR HEMOGLOBIN CONCENTRATION [1]: 36.97 G/DL | MEAN CORPUSCULAR VOLUME [1]: 63 fL | MONOCYTE [1]: 2% | NEUTROPHIL [1]: 8.33% | NUCLEATED RED BLOOD CELLS [1]: 0 /100WBC | PLATELET COUNT [1]: 1164.33 x10E3/uL | ALANINE AMINOTRANSFERASE [1]: 69.67 u/L | ALBUMIN [1]: 3.7 G/DL | ALKALINE PHOSPHATASE [1]: 366.67 u/L | ASPARTATE AMINOTRANSFERASE [1]: 95.33 u/L | BLOOD UREA NITROGEN [1]: 17.67 mg/dL | CARBON DIOXIDE [1]: 22.67 mmol/L | CHLORIDE [1]: 105 MEQ/L | CHOLESTEROL [1]: 58.67 mg/dL | CREATINE PHOSPHOKINASE [1]: 283.67 u/L | CREATININE [1]: 0.2 mg/dL | GLUCOSE [1]: 168.67 mg/dL | LACTATE DEHYDROGENASE [1]: 87.33 u/L | LIPASE [1]: 9 u/L | PHOSPHORUS [1]: 12.73 mg/dL | POTASSIUM [1]: 7.24 MEQ/L | SODIUM [1]: 145.2 MEQ/L | TOTAL BILIRUBIN [1]: 0.1 mg/dL | TOTAL PROTEIN [1]: 5.83 G/DL | URIC ACID [1]: 1.97 mg/dL | ABSOLUTE BASOPHIL [2]: 0 CELLS/uL | ABSOLUTE EOSINOPHIL [2]: 0 CELLS/uL | ABSOLUTE LYMPHOCYTE [2]: 13021.33 CELLS/uL | ABSOLUTE MONOCYTE [2]: 38.67 CELLS/uL | ABSOLUTE SEGMENTED NEUTROPHIL [2]: 1206.67 CELLS/uL | BASOPHIL [2]: 0% | EOSINOPHIL [2]: 0% | ERYTHROCYTE COUNT [2]: 5.54 x10E6/uL | HEMATOCRIT [2]: 36.53% | HEMOGLOBIN [2]: 13.53 G/DL | LEUKOCYTE COUNT [2]: 14.27 x10E3/uL | LYMPHOCYTE [2]: 91.33% | MEAN CORPUSCULAR HEMOGLOBIN [2]: 24.57 pg | MEAN CORPUSCULAR HEMOGLOBIN CONCENTRATION [2]: 37.03 G/DL | MEAN CORPUSCULAR VOLUME [2]: 66.2 fL | MONOCYTE [2]: 0.33% | NEUTROPHIL [2]: 8.33% | NUCLEATED RED BLOOD CELLS [2]: 0 /100WBC | PLATELET COUNT [2]: 1281.33 x10E3/uL | ALANINE AMINOTRANSFERASE [2]: 51.67 u/L | ALBUMIN [2]: 4.43 G/DL | ALKALINE PHOSPHATASE [2]: 377.33 u/L | ASPARTATE AMINOTRANSFERASE [2]: 70.67 u/L | BLOOD UREA NITROGEN [2]: 14.67 mg/dL | CARBON DIOXIDE [2]: 19.33 mmol/L | CHLORIDE [2]: 101.33 MEQ/L | CHOLESTEROL [2]: 73.67 mg/dL | CREATINE PHOSPHOKINASE [2]: 198.33 u/L | CREATININE [2]: 0.19 mg/dL | GLUCOSE [2]: 169.33 mg/dL | LACTATE DEHYDROGENASE [2]: 89.67 u/L | LIPASE [2]: 10 u/L | PHOSPHORUS [2]: 11.87 mg/dL | POTASSIUM [2]: 6 MEQ/L | SODIUM [2]: 146.3 MEQ/L | TOTAL BILIRUBIN [2]: 0.2 mg/dL | TOTAL PROTEIN [2]: 6.03 G/DL | URIC ACID [2]: 1.37 mg/dL | ABSOLUTE BASOPHIL [3]: 0 CELLS/uL | ABSOLUTE EOSINOPHIL [3]: 56 CELLS/uL | ABSOLUTE LYMPHOCYTE [3]: 13632 CELLS/uL | ABSOLUTE MONOCYTE [3]: 1059.33 CELLS/uL | ABSOLUTE SEGMENTED NEUTROPHIL [3]: 1786 CELLS/uL | BASOPHIL [3]: 0% | EOSINOPHIL [3]: 0.33% | ERYTHROCYTE COUNT [3]: 5.32 x10E6/uL | HEMATOCRIT [3]: 32.57% | HEMOGLOBIN [3]: 12.23 G/DL | LEUKOCYTE COUNT [3]: 16.53 x10E3/uL | LYMPHOCYTE [3]: 82.33% | MEAN CORPUSCULAR HEMOGLOBIN [3]: 23 pg | MEAN CORPUSCULAR HEMOGLOBIN CONCENTRATION [3]: 37.57 G/DL | MEAN CORPUSCULAR VOLUME [3]: 61.17 fL | MONOCYTE [3]: 6.33% | NEUTROPHIL [3]: 11% | NUCLEATED RED BLOOD CELLS [3]: 0 /100WBC | PLATELET COUNT [3]: 992.67 x10E3/uL | ALANINE AMINOTRANSFERASE [3]: 69 u/L | ALBUMIN [3]: 3.57 G/DL | ALKALINE PHOSPHATASE [3]: 386.67 u/L | ASPARTATE AMINOTRANSFERASE [3]: 113.33 u/L | BLOOD UREA NITROGEN [3]: 16 mg/dL | CARBON DIOXIDE [3]: 27 mmol/L | CHLORIDE [3]: 104.33 MEQ/L | CHOLESTEROL [3]: 62 mg/dL | CREATINE PHOSPHOKINASE [3]: 792 u/L | CREATININE [3]: 0.2 mg/dL | GLUCOSE [3]: 194 mg/dL | LACTATE DEHYDROGENASE [3]: 193.33 u/L | LIPASE [3]: 11.33 u/L | PHOSPHORUS [3]: 11.63 mg/dL | POTASSIUM [3]: 6.09 MEQ/L | SODIUM [3]: 144.97 MEQ/L | TOTAL BILIRUBIN [3]: 0.13 mg/dL | TOTAL PROTEIN [3]: 6.03 G/DL | URIC ACID [3]: 1.73 mg/dL
